# Source: patent US20090023646A1, “GHRH analogues” (Centre Hospitalier de L'Universite de Montreal (CHUM), priority 2002, published 2009)
# Square brackets hold non-standard residues; d marks the D form. Peptide text beside a SMILES is read from it.
# What was measured:
# [1] = In vitro proteolysis assay in rat serum; assay type: in vitro ADME; settings: mean±SEM
# Method: Proteolysis was stopped by adding 800 μl of ice-cold stop buffer (potassium-phosphate buffer, acidified to pH 0.8 with trifluoroacetic acid (TFA) and boiling 5 min (rat serum only). After centrifugation (12000 g, 5 min, 4° C.) (rat serum only), serum-peptide mixtures were passed through a conditioned Sep-Pak C-18 cartridge to extract native GHRH or a GHRH analogue residual concentrations from serum proteins. The native GHRH or the analogue was eluted in 2 ml of 50% acetonitrile-0.01% TFA/50% 0.01% aqueous TFA. Two hundred μl of extracted peptide, representing 1 μg of GHRH or analogue at time 0, was quantified by analytical HPLC, using one μ-Bondapak C18 column (10 μm particle size, 0.39×15 cm) (rat serum) or two C18 column in series (human serum and plasma) and a binary solvent system composed of NaClO4 0.01 M, pH 2.5 and acetonitrile. A linear gradient from 30 to 60% acetonitrile over 45 min (rat serum) or 30 to 50% (human serum and plasma) was used.
# male Beagle dog = assay: In vivo GH secretion after escalating SC injections in a male Beagle dog; settings: AUC not measured
# Method: (§1) The ability of human GHRH analogue #5 (human [D-Ala^2, D-Tyr^10, D-Ala^15, Lys^22] GHRH (1-29)NH2 analogue) to stimulate GH secretion was studied in adult female rats (26-34 weeks at onset of treatment) and in a male Beagle dog.
# Human GHRH analogue #5, in 0.9% sodium chloride for injection USP, was administered on days 3, 5 and 8 at dose levels of 0.01, 0.1, and 1 mg/kg body weight, respectively by subcutaneous (SC) injection to an approximately 8-month old male dog as shown in Table 3. On Day 1, the dog received the control (vehicle) article and on Day 11, the animal received the positive control, hGHRH (1-44)NH2 at a dose level of 0.01 mg/kg. Prior to administration, all dosing formulations were filtered using a 0.22 μm filter to ensure sterility. The actual amount of GHRH analogue #5 administered was calculated and adjusted based on the animal's most recent body weight. Dosing started at approximately the same time each day, commencing at 9:00 am±30 minutes. […]
# Plasma GH was determined by Linco Diagnostic Services using their own kit. Linco's Porcine/Canine Growth Hormone radioimmunoassay kit (RIA) (PGH-46HK) has been developed to quantitate Growth Hormone in plasma, serum, and tissue culture media. […]
# [2] = In vitro proteolysis assay in human serum; assay type: in vitro ADME
# Method: (§2) Ten μl of a 300 M solution of hGHRH (1-29)NH2 or of a GHRH analogue was solubilized in dimethylsulfoxide (DMSO) and incubated in one of the following conditions: a—190 μl serum (1/100 dilution in picopure water) from 2-month-old male Sprague Dawley rats, at 37° C. for 0, 8, 15, 30 or 60 min, in polypropylene tubes; b—190 μl of human healthy volunteer plasma (from Human Whole Blood Na EDTA, males, drug free (Algorithme Pharma Inc.); project: MTL-P2-155; Lot: MTLP2155-01, supplied by LAB Dev Int); and c—190 μl of human healthy volunteer pooled serum, Lot: X409 (supplied by LAB Dev Int), at 37° C. for 0, 60, 120, 180 or 420 min, in polypropylene tubes. Proteolysis was stopped by adding 800 μl of ice-cold stop buffer (potassium-phosphate buffer, acidified to pH 0.8 with trifluoroacetic acid (TFA) and boiling 5 min (rat serum only). After centrifugation (12000 g, 5 min, 4° C.) (rat serum only), serum-peptide mixtures were passed through a conditioned Sep-Pak C-18 cartridge to extract native GHRH or a GHRH analogue residual concentrations from serum proteins. The native GHRH or the analogue was eluted in 2 ml of 50% acetonitrile-0.01% TFA/50% 0.01% aqueous TFA. Two hundred μl of extracted peptide, representing 1 μg of GHRH or analogue at time 0, was quantified by analytical HPLC, using one μ-Bondapak C18 column (10 μm particle size, 0.39×15 cm) (rat serum) or two C18 column in series (human serum and plasma) and a binary solvent system composed of NaClO4 0.01 M, pH 2.5 and acetonitrile. A linear gradient from 30 to 60% acetonitrile over 45 min (rat serum) or 30 to 50% (human serum and plasma) was used.
# (§3) More specifically, the values represent the mean, standard deviation and standard error from the mean of 3 to 7 experiments.
# adult female rats = assay: In vivo GH secretion after single IV or SC injection in female rats; parameters: species or system rat
# Method: as §1
# Human GHRH analogue #5 in 0.9% sodium chloride for injection USP was administered once either by intravenous (IV) or subcutaneous (SC) injection to female rats followed by a 14-day observation period, as shown in Table 2. Prior to administration, all dosing formulations were filtered using a 0.22 μm filter to ensure sterility. The actual amount of GHRH analogue #5 administered was calculated and adjusted based on the animal's most recent body weight. Dosing started at approximately the same time each day, commencing at 9:00 am±30 minutes.
# For pharmacodynamic investigations, blood samples (approximately 1.3 ml) were collected from 2 animals per group per time point (maximum 3 time points/animal) via a jugular venipuncture at the following time points: pre-dose, 4, 10, 15, 45 minutes and 5 hours post dosing. […]
# Plasma GH was determined by Linco Diagnostic Services using their own kit.
# Linco's Rat Growth Hormone radioimmunoassay kit (RIA) (RGH-45HK) is intended for the quantitative determination of Rat Growth Hormone in serum, plasma, and tissue culture media. […]
# in vitro = settings: male, human, plasma
# Method: as §2, §3
compound,measurement,setting,value
"CC[C@H](C)[C@H](NC(=O)[C@H](C)NC(=O)[C@H](CC(=O)O)NC(=O)[C@@H](C)NC(=O)[C@@H](N)Cc1ccc(O)cc1)C(=O)N[C@@H](Cc1ccccc1)C(=O)N[C@H](C(=O)N[C@@H](CC(N)=O)C(=O)N[C@@H](CO)C(=O)N[C@H](Cc1ccc(O)cc1)C(=O)N[C@@H](CCCNC(=N)N)C(=O)N[C@@H](CCCCN)C(=O)N[C@H](C(=O)N[C@@H](CC(C)C)C(=O)N[C@H](C)C(=O)N[C@@H](CCC(N)=O)C(=O)N[C@@H](CC(C)C)C(=O)N[C@@H](CO)C(=O)N[C@@H](C)C(=O)N[C@@H](CCCNC(=N)N)C(=O)N[C@@H](CCCCN)C(=O)N[C@@H](CCCCN)C(=O)N[C@@H](CC(C)C)C(=O)N[C@@H](CCC(N)=O)C(=O)N[C@@H](CC(=O)O)C(=O)N[C@H](C(=O)N[C@@H](CCSC)C(=O)N[C@@H](CO)C(=O)N[C@@H](CCCNC(=N)N)C(N)=O)[C@@H](C)CC)C(C)C)[C@@H](C)O [GHRH analogue #5, [D-Ala^2, D-Tyr^10, D-Ala^15, Lys^22] hGHRH(1-29)-NH2] (H-Y[dA]DAIFTNS[dY]RKVL[dA]QLSARKKLQDIMSR-NH2)",Residual concentration,[1]; incubation 0 min,100 ± 0 % of initial concentration
same,Residual concentration,[1]; incubation 60 min,"significantly higher than that of either GHRH analogue 1, 2 or 3"
same,"remaining at 8 min, 15 µM","[1]; male, Sprague Dawley, diluted 1/100, incubation 8 min, read-out: Residual concentration",92 ± 5%
same,"remaining at 0.25 h, 15 µM","[1]; male, Sprague Dawley, diluted 1/100, incubation 15 min, read-out: Residual concentration",82 ± 6%
same,"remaining at 0.5 h, 15 µM","[1]; male, Sprague Dawley, diluted 1/100, incubation 30 min, read-out: Residual concentration",74 ± 7%
same,"remaining at 1 h, 15 µM","[1]; male, Sprague Dawley, diluted 1/100, incubation 60 min, read-out: Residual concentration",50 ± 3%
same,GH response compared with response to natural hGHRH(1-44)NH2,male Beagle dog,significantly larger
same,R2 (60 min): Relative resistance to in vitro proteolysis in comparison with hGHRH(1-29)NH2,[2]; 60-min incubation in human serum,1.55 ± 0.04
same,R2 (180 min): Relative resistance to in vitro proteolysis in comparison with hGHRH(1-29)NH2,[2]; 180-min incubation in human serum,2.93 ± 0.87
same,Mean residual amount,"[2]; human serum, incubation time 0 min",100%
same,Mean residual amount,"[2]; human serum, incubation time 420 min",50%
same,"remaining at 3 h, 15 µM","[2]; human, pooled human serum, 180-min incubation in human serum, read-out: Residual peptide concentration (180 min)",62 ± 2%
same,"remaining at 1 h, 15 µM","[2]; human, pooled human serum, human serum, incubation time 60 min, read-out: Mean residual amount",88%
same,"remaining at 2 h, 15 µM","[2]; human, pooled human serum, human serum, incubation time 120 min, read-out: Mean residual amount",76%
same,"remaining at 3 h, 15 µM","[2]; human, pooled human serum, human serum, incubation time 180 min, read-out: Mean residual amount",63%
same,"remaining at 7 h, 15 µM","[2]; human, pooled human serum, human serum, incubation time 420 min, read-out: Mean residual amount",50%
same,in vivo potency compared with the natural 44 amino acid GHRH,"adult female rats; in vivo, conclusion",at least two times more potent
same,GH secretion compared with response to natural hGHRH(1-44)NH2,"adult female rats; rat, pulse amplitude and AUC",twice larger
same,"remaining at 1 h, 15 µM",in vitro; Mean residual amount,92%
same,"remaining at 2 h, 15 µM",in vitro; Mean residual amount,84%
same,"remaining at 3 h, 15 µM",in vitro; Mean residual amount,78%
same,"remaining at 7 h, 15 µM",in vitro; Mean residual amount,75%
same,"remaining at 3 h, 15 µM",in vitro; Residual peptide concentration,74 ± 7%
